This assay is described as follows: Blood glucose by glucometer after 4 weeks of treatment. The assay is classed as in vivo. The settings on record: rats, streptozotocin 55 mg/kg ip, n=12, p<0.05. On the procedure: In this study, we used streptozotocin (55 mg/kg) to induce hyperglycemia. We measured the levels of glucose using standardized glucometer after 4 weeks of treatment. Based on the literature, the current animal model represents severe hyperglycemia.

Structures are written as SMILES.

`CN(N=O)C(=O)N[C@H]1C(O)O[C@H](CO)[C@@H](O)[C@@H]1O` (mixture of isomers) [Streptozotocin, streptozotocin]: the “increase of levels of glucose as compared to the controls” value came out at 445.5%.

The values are drawn from patent publication US20180360801A1, “NEUROPROTECTIVE COMPOSITIONS AND THEIR USE” (priority 2017, published 2018).
